# Reference: ChEMBL document CHEMBL1201862, “PubChem BioAssay data set” (2004)
# The source made the active and inactive calls.
# Key:
# [1] = molecular target: T1, Coagulation factor XII (Homo sapiens, UniProt P00748); type: functional;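 also: activated factor XIIa alpha cleaving a fluorogenic AMC peptide substrate; inhibitor potency from loss of enzyme activity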
# T1 sequence (P00748 whole entry): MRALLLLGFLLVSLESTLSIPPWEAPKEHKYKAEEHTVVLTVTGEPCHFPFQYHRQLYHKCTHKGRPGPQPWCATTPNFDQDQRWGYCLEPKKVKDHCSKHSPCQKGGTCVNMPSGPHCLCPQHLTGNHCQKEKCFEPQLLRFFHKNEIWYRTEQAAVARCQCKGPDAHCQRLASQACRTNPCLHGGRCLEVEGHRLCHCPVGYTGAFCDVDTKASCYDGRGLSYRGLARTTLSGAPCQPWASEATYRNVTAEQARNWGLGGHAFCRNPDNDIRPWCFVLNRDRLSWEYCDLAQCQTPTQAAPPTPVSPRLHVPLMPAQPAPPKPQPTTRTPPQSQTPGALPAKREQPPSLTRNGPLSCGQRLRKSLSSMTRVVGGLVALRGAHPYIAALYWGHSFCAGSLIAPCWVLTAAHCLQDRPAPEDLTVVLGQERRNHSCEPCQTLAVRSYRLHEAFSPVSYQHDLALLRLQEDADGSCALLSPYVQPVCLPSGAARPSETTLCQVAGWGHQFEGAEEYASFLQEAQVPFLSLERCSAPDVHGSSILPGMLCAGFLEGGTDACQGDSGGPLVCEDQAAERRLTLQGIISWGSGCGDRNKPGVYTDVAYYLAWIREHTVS
# [2] = NIH-3T3 fibroblast cytotoxicity, dose response, cytotoxicity control, cell-based, fluorescence, Alamar Blue, secondary assay (AID 2327); type: functional;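 also: NIH-3T3 mouse fibroblasts cultured with fluconazole at 8 µg/mL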
# [3] = molecular target: T2, Carboxy-terminal domain RNA polymerase II polypeptide A small phosphatase 1 (Homo sapiens, UniProt Q9GZU7); assay: inhibitors of CTDSP1, concentration-response testing, biochemical assay, absorbance-based, actives from ultra-high-throughput screening (AID 540297); type: functional
# T2 sequence (Q9GZU7 whole entry): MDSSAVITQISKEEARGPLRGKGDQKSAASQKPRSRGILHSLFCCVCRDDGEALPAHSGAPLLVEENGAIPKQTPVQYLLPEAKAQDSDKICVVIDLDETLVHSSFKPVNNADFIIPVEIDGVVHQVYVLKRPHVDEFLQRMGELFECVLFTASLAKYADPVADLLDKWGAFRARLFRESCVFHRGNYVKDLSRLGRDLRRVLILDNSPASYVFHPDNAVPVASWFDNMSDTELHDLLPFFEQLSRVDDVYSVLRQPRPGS
# [4] = inhibitors of intracellular T. cruzi replication, confirmation, NIH3T3 host cells, beta-gal luminescence (AID 2044); type: functional, cell-based;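 also: intracellular parasites grown in NIH/3T3 mouse fibroblasts as host cells; luminescent beta-galactosidase reporter signal from transgenic T. cruzi replicating inside host cells; inhibitors lower the luminescence signal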
# [5] = C. albicans growth with fluconazole, confirmation, fluorescence, retest (AID 2467); type: functional, cell-based
# [6] = molecular target: DNA dC->dU-editing enzyme APOBEC-3A (Homo sapiens, UniProt P31941); assay: Dose Response confirmation of small molecule APOBEC3A DNA Deaminase Inhibitors via a fluorescence-based single-stranded DNA deaminase assay. [Related pubchem assays (depositor defined):AID493011, AID493024]; type: functional
# [7] = molecular target: DNA dC->dU-editing enzyme APOBEC-3G (Homo sapiens, UniProt Q9HC16); type: functional;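 also: Dose-response counterscreen measuring inhibition of APOBEC3G DNA deaminase activity, run while confirming APOBEC3A inhibitors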
# [8] = cytotoxicity toward NIH3T3 fibroblasts, dose response, counter-screen, cell-based, ATP luminescence, mouse fibroblasts (AID 2010); type: functional;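 also: cells exposed to compound for about 90 hours before reading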
# [9] = molecular target: T3, Short transient receptor potential channel 4 (Mus musculus, UniProt Q9QUQ5); assay: mouse TRPC4 channel activators, dose response, cell-based, HEK293 TRPC4/mu-opioid, Fluo-4 calcium (AID 434937); type: functional
# T3 sequence (Q9QUQ5 whole entry): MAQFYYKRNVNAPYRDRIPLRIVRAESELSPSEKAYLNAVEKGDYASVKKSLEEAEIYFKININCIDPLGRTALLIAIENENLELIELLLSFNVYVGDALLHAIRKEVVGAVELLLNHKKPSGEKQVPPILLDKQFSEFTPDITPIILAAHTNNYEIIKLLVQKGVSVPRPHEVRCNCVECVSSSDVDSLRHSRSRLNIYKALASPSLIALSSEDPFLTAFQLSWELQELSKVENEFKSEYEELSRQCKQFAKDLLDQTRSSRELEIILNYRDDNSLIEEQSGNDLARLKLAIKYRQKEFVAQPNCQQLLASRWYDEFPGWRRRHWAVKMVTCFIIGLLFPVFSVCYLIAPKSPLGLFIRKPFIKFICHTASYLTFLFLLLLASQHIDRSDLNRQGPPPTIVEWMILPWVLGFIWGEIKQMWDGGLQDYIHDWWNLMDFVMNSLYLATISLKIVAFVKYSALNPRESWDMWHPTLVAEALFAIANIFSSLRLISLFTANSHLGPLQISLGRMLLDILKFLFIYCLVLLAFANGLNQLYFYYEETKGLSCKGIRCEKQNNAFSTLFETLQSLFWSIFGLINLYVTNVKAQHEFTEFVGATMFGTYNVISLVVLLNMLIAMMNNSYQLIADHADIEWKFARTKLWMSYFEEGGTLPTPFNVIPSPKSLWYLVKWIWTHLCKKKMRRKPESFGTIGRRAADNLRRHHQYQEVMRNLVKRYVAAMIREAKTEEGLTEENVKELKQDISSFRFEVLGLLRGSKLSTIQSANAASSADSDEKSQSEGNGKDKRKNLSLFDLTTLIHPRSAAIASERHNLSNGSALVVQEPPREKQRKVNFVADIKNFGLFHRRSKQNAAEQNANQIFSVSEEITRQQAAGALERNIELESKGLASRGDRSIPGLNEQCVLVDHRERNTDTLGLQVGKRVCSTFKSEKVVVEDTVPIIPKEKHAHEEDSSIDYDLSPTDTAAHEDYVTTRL
# [10] = cytotoxicity in HEK-293T cells, dose response, cytotoxicity control for TCR NF-kB inhibitor project, luminescence, T-cell screen hits (AID 489026); type: functional, cell-based;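 also: cells exposed to compound about 14 hours before the viability readout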
# [11] = molecular target: Beta-galactosidase (Escherichia coli, UniProt Q8VNN2); assay: Dose response counterscreen for EBI2 assay utilizing the enzyme, b-galactosidase.; type: functional
# [12] = molecular target: DNA damage-inducible transcript 3 protein (Mus musculus, UniProt P35639); type: functional, Cricetulus griseus
# [13] = molecular target: Eukaryotic translation initiation factor 4H (Homo sapiens, UniProt Q15056); assay: human eIF4H binding inhibitors, primary screen, translation initiation inhibitor project, biochemical, uHTS, fluorescence polarization (AID 2012)
# [14] = molecular target: Polyadenylate-binding protein 1 (Homo sapiens, UniProt P11940); assay: PABP poly(A) RNA binding inhibitors, primary screen, biochemical, fluorescence polarization, uHTS (AID 2014)
# [15] = growth suppression of PTEN-null colon cells, dose response, cell-based, HCT116 PTEN knockout (AID 1047); type: functional;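 also: HCT116 colon tumor cells with PTEN knocked out; cells exposed to compound for 60 hours before readout; potency for loss of cell viability measured by luminescence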
# [16] = growth suppression of beta-catenin-knockout colon cells, dose response, cell-based, HCT116, human colon tumor (AID 1045); type: functional;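 also: HCT116 colon tumor cells with beta catenin knocked out; cells exposed to compound for 60 hours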
# [17] = inhibitors of HIV Env-driven cell fusion, dose response, cherry-pick (AID 652057); type: functional, cell-based
# [18] = off-target signal loss in HeLa-CEM21 co-culture – HeLa F-luc CTL cells, cherry-picked, counter-screen for HIV-1 Env fusion inhibitor project, dose response (AID 652040); type: functional, cell-based;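 also: potency for signal decrease marking cytotoxic or nonspecific inhibition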
# [19] = system: BJ; assay: cytotoxicity toward BJ-TERT-LT-ST fibroblasts, dose response, cell-based, RAS-independent, luminescence (AID 1935); type: functional; settings: Homo sapiens;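 also: BJ fibroblasts immortalized with TERT plus LT and ST oncogenes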
# [20] = molecular target: Luciferin 4-monooxygenase (Photinus pyralis, UniProt P08659); assay: firefly luciferase enzyme inhibitors, dose response, biochemical, luminescence (AID 1891)
# [21] = molecular target: Paired box protein Pax-8 (Homo sapiens, UniProt Q06710); assay: inhibitors of PAX8-driven TPO luciferase reporter, dose response, RMG-I cells, cherry-pick (AID 687027); type: functional, cell-based;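 also: luciferase reporter driven by Pax8 target thyroperoxidase promoter measured by SteadyGlo luminescence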
# [22] = Luminescence Cell-Based Dose Confirmation HTS to Identify Inhibitors of Platelet Dense Granule Release. [Related pubchem assays: 1663 (Primary HTS), 1678 (Summary of Project)]; type: functional
# [23] = cytotoxicity toward DRD oncogenic fibroblasts, dose response, cell-based, non-viral oncogenic, luminescence (AID 1934); type: functional; settings: Homo sapiens
# [24] = inhibitors of clade B AD8 Env fusion, dose response, cell-based, cherry-pick (AID 652062); type: functional;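 also: luciferase signal from cell-cell fusion driven by HIV-1 clade B AD8 Env; potency is for inhibitors of fusion seen as a drop in luminescence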
# [25] = non-specific cell cytotoxicity, dose response, cytotoxicity control for PAX8 inhibitor project, plate reader, dry powder samples (AID 743021); type: functional, cell-based
# [26] = system: BJ; assay: cells; type: functional, cell-based; settings: Homo sapiens
# [27] = CEM21 lymphoblast cell cytotoxicity, dose response, cytotoxicity control for viral fusion inhibitor project, CellTiter-Glo luminescence, cherry-picked (AID 652042); type: functional, cell-based;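 also: potency for signal decrease meaning cytotoxicity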
# [28] = ZM109 Env clade C HIV-1 fusion inhibitors, dose response, HeLa effector, CEM target cells, luciferase, cherry-pick (AID 652058); type: functional, cell-based
# [29] = system: BJ; assay: cytotoxicity toward BJ-TERT fibroblasts, dose response, cell-based, RAS-independent, luminescence (AID 1933); type: functional; settings: Homo sapiens
# Chain of DNA damage-inducible transcript 3 protein (P35639 whole entry): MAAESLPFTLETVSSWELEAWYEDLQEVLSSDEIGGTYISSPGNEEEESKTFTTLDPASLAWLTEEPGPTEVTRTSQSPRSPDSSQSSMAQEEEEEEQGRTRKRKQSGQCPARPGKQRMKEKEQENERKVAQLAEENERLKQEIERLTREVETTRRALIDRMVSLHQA
# Chain of DNA dC->dU-editing enzyme APOBEC-3A (P31941 whole entry): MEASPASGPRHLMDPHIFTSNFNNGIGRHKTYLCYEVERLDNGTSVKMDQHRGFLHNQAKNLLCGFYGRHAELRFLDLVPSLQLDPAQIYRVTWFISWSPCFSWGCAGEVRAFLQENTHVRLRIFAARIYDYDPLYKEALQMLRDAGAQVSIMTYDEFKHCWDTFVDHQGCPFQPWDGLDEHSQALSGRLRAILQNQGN
# Chain of DNA dC->dU-editing enzyme APOBEC-3G (Q9HC16 whole entry): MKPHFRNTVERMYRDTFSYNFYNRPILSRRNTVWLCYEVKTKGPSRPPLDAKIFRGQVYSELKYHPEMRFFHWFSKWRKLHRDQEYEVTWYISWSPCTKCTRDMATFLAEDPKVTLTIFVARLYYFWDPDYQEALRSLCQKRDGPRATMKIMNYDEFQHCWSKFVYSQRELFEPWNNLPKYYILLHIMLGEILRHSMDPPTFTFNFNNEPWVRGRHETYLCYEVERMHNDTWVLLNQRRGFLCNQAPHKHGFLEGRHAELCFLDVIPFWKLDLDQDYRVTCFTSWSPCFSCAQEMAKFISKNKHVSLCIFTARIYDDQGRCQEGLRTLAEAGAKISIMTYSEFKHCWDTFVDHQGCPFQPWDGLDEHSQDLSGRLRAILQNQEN
# Chain of Polyadenylate-binding protein 1 (P11940 whole entry): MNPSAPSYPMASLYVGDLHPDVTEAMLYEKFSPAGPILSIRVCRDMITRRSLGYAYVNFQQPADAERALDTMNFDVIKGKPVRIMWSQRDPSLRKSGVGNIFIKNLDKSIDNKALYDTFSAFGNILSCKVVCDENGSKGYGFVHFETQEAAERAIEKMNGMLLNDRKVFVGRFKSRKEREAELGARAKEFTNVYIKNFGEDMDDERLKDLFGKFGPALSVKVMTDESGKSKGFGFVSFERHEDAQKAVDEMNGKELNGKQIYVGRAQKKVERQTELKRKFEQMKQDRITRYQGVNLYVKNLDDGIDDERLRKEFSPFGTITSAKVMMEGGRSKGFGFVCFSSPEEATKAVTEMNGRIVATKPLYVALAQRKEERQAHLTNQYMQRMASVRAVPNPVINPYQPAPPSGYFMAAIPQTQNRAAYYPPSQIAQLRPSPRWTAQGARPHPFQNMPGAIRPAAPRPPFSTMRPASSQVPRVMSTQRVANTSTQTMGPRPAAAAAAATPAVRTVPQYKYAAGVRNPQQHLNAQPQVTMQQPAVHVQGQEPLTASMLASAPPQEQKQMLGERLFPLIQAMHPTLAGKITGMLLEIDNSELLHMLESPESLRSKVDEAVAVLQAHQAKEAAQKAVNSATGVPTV
# Chain of Paired box protein Pax-8 (Q06710 whole entry): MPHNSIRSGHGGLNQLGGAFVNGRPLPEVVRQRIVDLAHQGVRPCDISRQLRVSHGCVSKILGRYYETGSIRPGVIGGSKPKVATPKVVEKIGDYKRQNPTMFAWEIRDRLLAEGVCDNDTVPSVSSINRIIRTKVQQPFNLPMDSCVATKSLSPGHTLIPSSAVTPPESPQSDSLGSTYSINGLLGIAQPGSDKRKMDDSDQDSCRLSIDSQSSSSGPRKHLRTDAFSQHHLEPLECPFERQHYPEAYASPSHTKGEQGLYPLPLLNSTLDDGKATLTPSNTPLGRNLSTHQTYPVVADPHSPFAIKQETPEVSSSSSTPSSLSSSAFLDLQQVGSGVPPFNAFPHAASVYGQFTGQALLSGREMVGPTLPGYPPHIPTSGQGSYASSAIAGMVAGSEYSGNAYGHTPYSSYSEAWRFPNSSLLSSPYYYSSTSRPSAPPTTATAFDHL
# Chain of Beta-galactosidase (Q8VNN2 whole entry): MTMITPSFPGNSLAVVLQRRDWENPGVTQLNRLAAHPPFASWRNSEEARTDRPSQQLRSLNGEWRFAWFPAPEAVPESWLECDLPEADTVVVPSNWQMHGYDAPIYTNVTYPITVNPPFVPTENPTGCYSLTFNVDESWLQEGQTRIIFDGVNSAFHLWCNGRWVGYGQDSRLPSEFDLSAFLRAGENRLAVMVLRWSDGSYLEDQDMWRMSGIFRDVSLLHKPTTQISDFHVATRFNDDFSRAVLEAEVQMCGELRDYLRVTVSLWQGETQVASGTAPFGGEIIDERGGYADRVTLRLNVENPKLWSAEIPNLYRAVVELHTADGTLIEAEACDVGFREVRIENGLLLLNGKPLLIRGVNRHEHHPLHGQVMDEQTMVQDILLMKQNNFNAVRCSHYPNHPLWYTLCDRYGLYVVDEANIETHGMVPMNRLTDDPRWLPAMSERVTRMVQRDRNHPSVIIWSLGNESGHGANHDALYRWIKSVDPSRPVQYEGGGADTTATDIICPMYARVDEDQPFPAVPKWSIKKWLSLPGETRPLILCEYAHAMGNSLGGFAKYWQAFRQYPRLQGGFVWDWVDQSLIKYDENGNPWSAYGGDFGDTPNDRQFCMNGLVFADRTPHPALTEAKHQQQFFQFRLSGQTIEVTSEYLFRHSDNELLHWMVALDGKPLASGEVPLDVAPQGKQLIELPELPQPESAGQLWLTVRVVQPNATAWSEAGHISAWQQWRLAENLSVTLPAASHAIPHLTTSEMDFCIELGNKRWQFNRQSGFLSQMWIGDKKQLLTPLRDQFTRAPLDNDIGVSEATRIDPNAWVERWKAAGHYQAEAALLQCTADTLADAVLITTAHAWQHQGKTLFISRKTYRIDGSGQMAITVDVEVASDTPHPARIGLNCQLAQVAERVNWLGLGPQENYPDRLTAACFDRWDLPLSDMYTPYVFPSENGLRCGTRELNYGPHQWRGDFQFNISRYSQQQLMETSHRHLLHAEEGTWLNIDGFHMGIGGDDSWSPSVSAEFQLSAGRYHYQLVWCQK
# Chain of Luciferin 4-monooxygenase (P08659 whole entry): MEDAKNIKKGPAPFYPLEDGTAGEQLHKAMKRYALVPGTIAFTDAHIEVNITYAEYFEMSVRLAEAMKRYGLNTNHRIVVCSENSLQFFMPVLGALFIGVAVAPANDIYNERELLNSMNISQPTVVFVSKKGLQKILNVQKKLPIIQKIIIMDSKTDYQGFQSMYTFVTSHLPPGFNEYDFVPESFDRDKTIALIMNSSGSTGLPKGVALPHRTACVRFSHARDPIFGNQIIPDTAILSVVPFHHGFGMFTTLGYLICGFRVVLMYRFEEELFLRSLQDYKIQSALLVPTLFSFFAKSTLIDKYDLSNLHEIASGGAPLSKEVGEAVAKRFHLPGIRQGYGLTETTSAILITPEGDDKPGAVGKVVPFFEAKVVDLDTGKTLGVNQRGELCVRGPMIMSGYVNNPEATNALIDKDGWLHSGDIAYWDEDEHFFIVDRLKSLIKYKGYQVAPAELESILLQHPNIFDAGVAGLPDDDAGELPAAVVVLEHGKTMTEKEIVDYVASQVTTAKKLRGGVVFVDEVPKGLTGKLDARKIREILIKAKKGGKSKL
structure (smiles),measurement,setting,value
CCOC(=O)CNC(=O)Cc1ccc(OC)cc1,IC50,[1],> 50 µM (inactive)
CC1(C)CC(N2CCCC2)=CC(=[N+]2CCCC2)C1,EC50,[2],> 160 µM (inactive)
same,IC50,[3],3.62 µM (active)
same,EC50,[4],693 nM (active)
same,EC50,[5],2.7 µM (active)
same,IC50,[6],1.53 µM (active)
same,IC50,[7],1.47 µM (active)
same,EC50,[8],> 60 µM (not active)
CN(CCc1ccccn1)C(=O)CC1C(=O)NCCN1Cc1ccc(-c2ccccc2)cc1 (configuration not stated),EC50,[9],3.76 µM (active)
CCCn1ncc(CN2CCC(n3nccc3NC(=O)CCc3ccccc3)CC2)c1C,EC50,[9],0.024 µM (active)
COc1ccc(Nc2nc(-c3sc(C)nc3C)cs2)cc1,IC50,[10],49.6 µM (inactive)
same,IC50,[11],> 80 µM (inactive)
CCOC(=O)c1ccccc1NC(=O)Cn1c(-c2nonc2N)nc2ccccc21,IC50,[10],> 80 µM (inactive)
O=C(c1ccc(Cl)cc1)c1c[nH]c(C(=O)NNc2cccc(Cl)n2)c1,Absolute IC50 (CHOP),[12],10 µM
CC(C)[N+](C)(C)CC#CC(O)(c1ccccc1)c1ccccc1,IC50,[13],> 100 µM (inactive)
same,IC50,[6],2.55 µM (active)
same,IC50,[7],2.49 µM (active)
same,IC50,[14],9.63 µM (active)
CCn1c(SCC(=O)Nc2cccnc2Cl)nnc1-c1ccccc1,IC50,[1],> 50 µM (inactive)
COc1ccc(OC)c2sc(NC(=O)c3ccc(Cl)s3)nc12,EC50,[15],11.8 µM (active)
same,EC50,[16],9.28 µM (active)
same,Absolute IC50 (CHOP),[12],10 µM
CN(C)CCNC(=O)c1scc2c1CCCC2,EC50,[9],3.35 µM (active)
O=C(O)c1ccc(N/N=C/c2ccc3c(c2)OCO3)cc1,AC50,[17],2.44 µM (active)
same,AC50,[18],4.15 µM (active)
same,IC50,[10],> 80 µM (inactive)
same,EC50,[19],24.2 µM (active)
same,EC50,[20],< 88 nM (active)
same,AC50,[21],3.04 µM (active)
same,EC50,[22],< 88 nM (active)
same,EC50,[23],8.19 µM (active)
same,AC50,[24],5.24 µM (active)
same,AC50,[25],27.7 µM (active)
same,EC50,[26],8.37 µM (active)
same,AC50,[27],36.6 µM (active)
same,AC50,[28],9.48 µM (active)
same,EC50,[29],13.1 µM (active)
